The values below come from patent US6841552B1, “3a,4,5,9b-tetrahydro-1H-benz[e]indol-2-yl amine-derived neuropeptide Y receptors ligands useful in the treatment of obesity and other disorders” (Ortho-McNeil Pharmaceutical, Inc., priority 1999, dated 2005).

This test concerns the target T1, human neuropeptide Y5 receptor (Homo sapiens, UniProt Q15761).
T1 construct: expressed in transfected cells; membranes
T1 sequence (Q15761 1-445): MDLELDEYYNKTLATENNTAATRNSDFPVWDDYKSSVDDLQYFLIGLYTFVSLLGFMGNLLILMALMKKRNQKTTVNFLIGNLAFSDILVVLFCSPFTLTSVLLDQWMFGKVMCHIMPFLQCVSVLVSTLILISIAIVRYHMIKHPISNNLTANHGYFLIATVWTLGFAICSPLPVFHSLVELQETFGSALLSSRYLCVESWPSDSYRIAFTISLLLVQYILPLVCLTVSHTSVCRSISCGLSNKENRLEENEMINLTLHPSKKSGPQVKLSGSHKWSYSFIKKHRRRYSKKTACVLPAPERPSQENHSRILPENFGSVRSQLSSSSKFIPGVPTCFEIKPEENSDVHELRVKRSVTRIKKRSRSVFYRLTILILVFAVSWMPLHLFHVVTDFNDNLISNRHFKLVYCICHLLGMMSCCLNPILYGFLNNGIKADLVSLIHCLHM
Kind of test: NPY5 HTS centrifugation assay: competition with 125I-PYY for binding to membranes of NPY5-transfected HEK293 cells. Particulars: for inhibition at 0.3 µM / % Inh @ 300 nM: % inhibition of 125I-PYY binding at 300 nM compound; for inhibition at 0.3 µM: read-out: % Inh @ 300 nM; for inhibition at 3 µM / % Inh @ 3 uM: % inhibition of 125I-PYY binding at 3 uM compound. On the procedure:
NPY5 HTS Centrifugation Assay
The compounds described in this invention were evaluated for binding to the human neuropeptide Y5 receptor.
The human NPY5 receptor cDNA (Genbank Accession number U66275) was inserted into the vector pClneo (Invitrogen) and transfected into human embryonic kidney cells (HEK-293) via calcium phosphate method (Cullen 1987). Stably transfected cells were selected with G-418 (600 μg/mL). Stably transfected cells served as the source for the membranes for the NPY5 receptor binding assay.
NPY5-transfected HEK293 cells were grown to confluence in 150 cm^2 culture dishes. Cells were washed once with phosphate-buffered saline (Gibco Cat# 14040-133). Cells were then incubated in phosphate-buffered saline without calcium and without magnesium, supplemented with 2 mM EDTA. Cells were incubated for 10 minutes at room temperature and the cells were collected by repetitive pipeting. Cells were formed into pellets and then frozen at −80° C. until needed. Frozen pellets were homogenized with a polytron at full speed for 12 seconds in a homogenization buffer (20 mM Tris HCl, 5 mM EDTA, pH 7.4). Homogenates were centrifuged for 5 minutes at 4° C. at 200 g. Supernatants were transferred to corex tubes and centrifuged for 25 minutes at 28,000 g. Pellets were re-suspended in Binding (20 mM HEPES, 10 mM NaCl, 0.22 mM KH2PO4, 1.3 mM CaCl2, 0.8 mM MgSO4, pH 7.4). Membranes were kept on ice until use.
A competition binding assay, known to those skilled in the art, was used in which compounds of formula A compete with ^125I-PYY for binding to cell membranes. In simple terms, the less ^125I-PYY bound to the membranes implies that a compound is a good inhibitor (competitor). Bound ^125I-PYY is determined by centrifugation of membranes, aspirating supernatant, washing away residual ^125I-PYY and subsequently counting the bound sample in a gcounter.
Compounds to be tested were prepared as 10× stocks in binding buffer and added first to assay tubes (RIA vials, Sarstedt). Twenty (20) μL of each 10× compound stock is pipeted into vials and 80 μL of ^125I-PYY (NEN catalog number NEX240), which has been diluted to a concentration of 200 pM in 0.25% BSA in binding buffer, is added to the compound tubes (final concentration of ^125I-PYY is 80 pM). To each tube is added 100 μL of membranes and the mixture is agitated by pipeting 2 times. Samples are incubated for 1 hr at room temperature. Aluminum cast plates (Sarstedt) containing the vials are then centrifuged 10 minutes at 3200 rpm in a Sorvall RT6000. Supernatant is then aspirated. To each vial 400 μL PBS is added and this is then aspirated again. Vials are then put in carrier polypropylene 12×75 tube and counted in gamma counter (Packard). Non-specific binding is determined in the presence of 300 nM NPY. Percent inhibition of ^125I-PYY binding is calculated by subtracting non-specific binding from the test samples (compound (I)), taking these counts and dividing by total binding, and multiplying by 100. Inhibitory concentration values (IC50) of compounds that show appreciable inhibition of ^125I-PYY binding are calculated by obtaining percent inhibition of ^125I-PYY binding values at different concentrations of the test compound, and using a graphing program such as GraphPad Prism (San Diego, Calif.) to calculate the concentration of test compound that inhibits fifty-percent of ^125I-PYY binding (Table 4).

Consider `O=S(=O)(NC[C@H]1CC[C@H](CNC2=N[C@H]3CCc4cc(Cl)ccc4[C@H]3C2)CC1)c1ccccc1` (relative stereo) [Compound 18, N-[[trans-4-[[(cis-3a,4,5,9b-tetrahydro-7-chloro-1H-benz[e]indol-2-yl)amino]methyl]cyclohexyl]methyl]benzenesulfonamide], for which the inhibition at 0.3 µM stood at 90% and the inhibition at 3 µM came to 109%.
On to `O=C(NC1=N[C@H]2CCc3cc(O)ccc3[C@H]2C1)[C@H]1CC[C@H](CNS(=O)(=O)c2ccccc2)CC1` (relative stereo) [Compound 9, trans-4-[[(Phenylsulfonyl)amino]methyl]-N-(cis-3a,4,5,9b-tetrahydro-7-hydroxy-1H-benz[e]indol-2-yl)cyclohexanecarboxamide], for which the inhibition at 0.3 µM came out at 97% and the inhibition at 3 µM came to 97%.
On to `NC1(C(=O)CN2CCC(n3c(=O)[nH]c4ccccc43)CC2)CC2c3ccc(O)cc3CCC2N1` (centres unmarked) [Compound 21, 2-[[4-(2,3-Dihydro-2-oxo-1H-benzimidazol-1-yl)-1-piperidinyl]acetyl]-[3a,4,5,9b-tetrahydro-7-hydroxy-1H-benzo[e]indol-2-yl]-amine], for which the inhibition at 0.3 µM was 20% and the inhibition at 3 µM stood at 78%.
In the case of `COc1ccc2c(c1)CC[C@@H]1N=C(NC(=O)[C@H]3CC[C@H](CNS(=O)(=O)c4ccccc4)CC3)C[C@H]21` (relative stereo) [Compound 7, trans-4-[[(Phenylsulfonyl)amino]methyl]-N-(cis-3a,4,5,9b-tetrahydro-7-methoxy-1H-benz[e]indol-2-yl)cyclohexanecarboxamide], the “% Inh @ 300 nM” value (0.3 µM) was found to be 82%. For the setting “3 µM”, the “% Inh @ 3 uM” value was 98%.
Turning to `COc1ccc2c(c1)CC[C@@H]1N=C(NC(=O)[C@H]3CC[C@H](CNS(=O)(=O)c4ccccc4)CC3)C[C@H]21` (relative stereo) [Compound 19, trans-4-[[(Phenylsulfonyl)amino]methyl]-N-(cis-3a,4,5,9b-tetrahydro-7-methoxy-1H-benz[e]indol-2-yl)cyclohexanecarboxamide], the inhibition at 0.3 µM came to 80% and the inhibition at 3 µM was determined as 99%.
In the case of `O=C(NC1=N[C@H]2CCc3cc(Cl)ccc3[C@H]2C1)[C@H]1CC[C@H](CNS(=O)(=O)c2ccccc2)CC1` (relative stereo) [Compound 17, trans-4-[[(Phenylsulfonyl)amino]methyl]-N-(cis-3a,4,5,9b-tetrahydro-7chloro-1H-benz[e]indol-2-yl)cyclohexanecarboxamide], the inhibition at 0.3 µM was determined as 86% and the inhibition at 3 µM amounted to 107%.
For `O=C(NC1=N[C@H]2CCc3cc(F)ccc3[C@H]2C1)[C@H]1CC[C@H](CNS(=O)(=O)c2ccccc2)CC1` (relative stereo) [Compound 15, trans-4-[[(Phenylsulfonyl)amino]methyl]-N-(cis-3a,4,5,9b-tetrahydro-7-fluoro-1H-benz[e]indol-2-yl)cyclohexanecarboxamide], in that order: 89% and 100%.
In the case of `O=S(=O)(NC[C@H]1CC[C@H](CNC2=N[C@H]3CCc4cc(F)ccc4[C@H]3C2)CC1)c1ccccc1` (relative stereo) [Compound 16, N-[[trans-4-[[(cis-3a,4,5,9b-tetrahydro-7-fluoro-1H-bnz[ ]indol-2-yl)amino]methyl]cyclohexyl]methyl]benzenesulfonamide], the “% Inh @ 300 nM” value is 76% and the “% Inh @ 3 uM” value was determined as 100%.
For `O=C(CN1CCC(n2c(=O)[nH]c3ccccc32)CC1)NC1=N[C@@H]2CCc3ccccc3[C@@H]2C1` [Compound 11], the inhibition at 0.3 µM was determined as 48% and the inhibition at 3 µM worked out at 85%.
For `O=C(NC1=N[C@H]2CCc3ccccc3[C@H]2C1)[C@H]1CC[C@H](CNS(=O)(=O)c2ccccc2)CC1` (relative stereo) [Compound 13, trans-4-[[(Phenylsulfonyl)amino]methyl]-N-(cis-3a,4,5,9b-tetrahydro-1H-benz[e]indol-2-yl)cyclohexanecarboxamide], in that order: 80% and 100%.
For `O=S(=O)(NC[C@H]1CC[C@H](CNC2=N[C@H]3CCc4ccccc4[C@H]3C2)CC1)c1ccccc1` (relative stereo) [Compound 14, N-[[trans-4-[[(cis-3a,4,5,9b-tetrahydro-1 H-benz[e]indol-2-yl)amino]methyl]cyclohexyl]methyl]benzenesulfonamide], the inhibition at 0.3 µM is 89% and the inhibition at 3 µM came to 93%.
With `COc1ccc2c(c1)CCC1N=C(NCCN3CCC(n4c(=O)[nH]c5ccccc54)CC3)CC21` (centres unmarked) [Compound 12], the “% Inh @ 300 nM” value came out at 9% and the “% Inh @ 3 uM” value worked out at 53%.
Consider `COc1ccc2c(c1)CCC1NC(N)(C(=O)CN3CCC(n4c(=O)[nH]c5ccccc54)CC3)CC21` (centres unmarked) [Compound 20, 2-[[4-(2,3-Dihydro-2-oxo-1H-benzimidazol-1-yl)-1-piperidinyl]acetyl]-[3a,4,5,9b-tetrahydro-7-methoxy-1H-benzo[e]indol-2-yl]-amine], for which the inhibition at 0.3 µM turned out to be 0% and the inhibition at 3 µM amounted to 50%.
